Test system: Tetranychus urticae
Assay: Tetranychus urticae (Two Spotted Spider Mite) contact/feeding activity, adult mortality on sprayed bean plants
Assay type: in vivo
Protocol: Tetranychus urticae (Two Spotted Spider Mite)
(Contact/Feeding Activity)
Bean plants are infested with mite populations of mixed ages. 1 day after infestation, plants are treated in a spray chamber with diluted test solutions. 1 and 8 days later, samples are checked for adult mortality. 2 replicates per treatment were evaluated.
Data is not shown for experiments where there was no insect mortality when the compounds were applied alone and in combination. When a compound applied alone gave no control at a particular rate, it is assumed that lower rates of that compound alone also give no control.

## CC(C)c1cc(Oc2ccccc2)cc(C(C)C)c1NC(=S)NC(C)(C)C [DFN, diafenthiuron]
DFN alone 1.562 ppm
  DFN observed control %: 0%
DFN alone 3.125 ppm
  DFN observed control %: 0%
DFN alone 6.25 ppm
  DFN observed control %: 25%
DFN alone 12.5 ppm
  DFN observed control %: 60%
DFN alone 25 ppm
  DFN observed control %: 95%

## CC1(C)[C@H](C(=O)O[C@H](C#N)c2cccc(Oc3ccccc3)c2)[C@@H]1/C=C(\Cl)C(F)(F)F (racemic) [LCYH, lambda cyhalothrin]
LCYH alone 0.781 ppm
  LCYH observed control %: 0%
LCYH alone 1.562 ppm
  LCYH observed control %: 0%
LCYH alone 3.125 ppm
  LCYH observed control %: 0%
LCYH alone 6.25 ppm
  LCYH observed control %: 25%
LCYH alone 12.5 ppm
  LCYH observed control %: 75%
LCYH alone 25 ppm
  LCYH observed control %: 80%
LCYH alone 50 ppm
  LCYH observed control %: 85%
LCYH alone 100 ppm
  LCYH observed control %: 95%

## CN1COCN(Cc2cnc(Cl)s2)/C1=N\[N+](=O)[O-] [TMX, thiamethoxam]
TMX alone 50 ppm
  TMX observed control %: 0%
TMX alone 100 ppm
  TMX observed control %: 0%
TMX alone 200 ppm
  TMX observed control %: 0%
TMX alone 400 ppm
  TMX observed control %: 0%

— patent US9402399B2, “Pesticidal mixtures including isoxazoline derivatives” (Syngenta Participations AG, priority 2011, dated 2016)
